“Also recorded” adds a separate entry of the source.
Legend:
HeLa cells = assay: Fluorescence microscopy of cell penetration; assay type: cell-based, human
Procedure: HeLa cells were treated with STR4-FITC (FIG. 4) or STR22-FITC (FIG. 5), at 5 μM for up to 24 hours. […] STR22 was retained at high levels for at least 24 hours following cell treatment.
Fluorescence Microscopy and Quantitative Analysis. HeLa cells were seeded in 12-well chamber slides with 2,500 cells per well (Ibidi, 81201). Once cells reached 40-50% confluency, they were treated with either DMSO, or 5 μM FITC-labeled STR for indicated durations. For shorter treatment times (<24 hrs), cells were grown to 70-80% confluency before start of treatment.
At the end of treatment, cells were washed with phosphate buffered saline (PBS) four times, fixed with 4% formaldehyde in PBS at room temperature for 10 mins, and then washed twice with PBS. Nuclei were labeled with DAPI (Thermo, D1306) in PBS at room temperature for 3 mins. Rubber gaskets and chambers were removed, and slides were dried in the dark at room temperature. When dry, cover glass (Fisher, #12-545 M) was mounted with 50 μL anti-fade mounting solution (Invitrogen, P36961), and sealed with nail polish. A Leica SP8 Laser Scanning Confocal with HyD detectors was used to image a single focal plane to accurately detect the DAPI and FITC signal. Identical microscope acquisition parameters were set and used within experiments to control for exposure. […] Loss-less TIFF files were employed to quantify fluorescence intensity.

[1] = tested on: MDA-MB-231 cells, HRE-regulated genes (GLUT1, VEGFA, PGK1); assay: qPCR of hypoxia-induced genes, MDA-MB-231; assay type: cell-based, human; conditions: MDA-MB-231, 20 μM
Procedure: The effect of STR22 on cell growth and invasion in culture under normoxic or hypoxic conditions was determined.
Real-Time PCR. mRNA was extracted using RNeasy plus Mini Kit (Qiagen). 1.5 μg mRNA sample was reverse transcribed into cDNA using a reverse transcription kit (Invitrogen A48570) and then subjected to SYBR-green based real-time PCR analysis (Invitrogen A25741). Primers used: […]

AP-1 site = assay: EMSA, direct binding to AP-1 DNA probe
From the text: The DNA binding dimer STR22 (shown in FIG. 21 and FIG. 27) was synthesized. STR22 was subjected to EMSA to measure binding to either the UPR element (UPRE) or AP-1 binding site (AP-1).
bZIP transcriptional repressors FJSTR7 (shown in FIGS. 42 and 45), FJSTR71 (shown in FIGS. 52 and 53), and FJSTR72 (shown in FIGS. 52 and 54), were generated and tested.
Electrophoretic Mobility Shift Assays (EMSAs): For direct DNA binding experiments, STRs were serially diluted at 10× concentration in water and then 1 μL of STR solution was added to 9 μL of 5 nM IRD700-labeled DNA probe bearing either a UPRE or AP-1 motif in a final 1×binding buffer (20 mM HEPES pH 8.0, 150 mM NaCl, 5% glycerol, 1 mM EDTA, 2 mM MgCl2, 0.5 mg/mL BSA, 1 mM DTT, 0.05% NP-40). Samples were incubated for 1 hr at RT. 5 μL of each reaction was loaded on an 8% acrylamide, 0.5×TBE gel equilibrated to 4° C. Samples were resolved for 60 min at 110 V and 4° C. with 0.5×TBE+1 mM MgCl2 running buffer. Gels were pre-run at 110 V for 15 min prior to sample loading. For competition experiments, 30 or 60 nM STRs and 5 nM labeled UPRE probe were incubated with 0, 7.8, 13, 21.6, 36, 60 or 100 nM unlabeled competitor oligo for 1 hr at RT. […] ImageJ was used to quantify band intensity and the fraction of bound DNA was calculated by dividing the band intensity of bound DNA by the band intensity of free DNA from the vehicle treated lane. […]

[2] = tested on: HRE-regulated luciferase reporter; assay: 5xHRE-regulated luciferase reporter under hypoxia; assay type: cell-based, human; conditions: HeLa, 1% O2, 24 hours
Procedure: Luciferase Assays. Approximately 2×10^4 HeLa cells were seeded in the each well of a 96-well plate. Cells were co-transfected with 3×UPRE-luc (Addgene, 101788) and XBP1s overexpression construct or control vector using Lipofectamine 3000 (Invitrogen) for 4 hrs, which was then followed by treatment with STR22 for 24 hrs. Cells were then lysed in diluted cell culture lysis 5× buffer (Promega). 1× luciferase reagents (1 mM D-luciferin, 3 mM ATP, 15 mM MgSO4, 30 mM HEPES pH=7.8) were then added and the mixtures were read for luminescence. For hypoxia response experiments, cells were transfected with 5×HRE-luc (PGK1-derived HRE promoter, Addgene, 128095) vector using Lipofectamine 3000 (Invitrogen) for 4 hrs and then treated with STR22 under 1% 02 (hypoxia) for 24 hrs. Luminescence was read following the aforementioned protocol.

SUM159 cells = assay: Boyden chamber invasion, SUM159; assay type: cell-based; conditions: SUM159, hypoxia, 24 hours
MDA-MB-231 cells = assay: Trypan blue cell viability; assay type: cell-based, human; conditions: MDA-MB231, 20 μM, 24 hours
From the text: Trypan Blue Cell Viability Assay. […] The cell suspension was then collected and subjected for trypan blue viability reading using trypan blue cell viability analyzer (Beckman Coulter Vi-CELL XR).

## XBP1-derived stapled dimer: RRK^KNR^AAQTARDRKKA#LSELEQQVVDLE linked to RRK^KNR^AAQTARDRKKARLSEL#QQVVDLE; FIG. 27 [STR22]
HeLa cells; FITC-labeled analogs, 12 hours
  intracellular distribution / fluorescence (confocal): distributed throughout both cytosolic and nuclear compartments
HeLa cells; FITC-labeled, 5 μM, up to 24 hours
  penetration of HeLa cells: penetration
[1]
  hypoxia-induced gene expression (qPCR): significantly inhibited expression of downstream HRE-regulated target gene mRNAs; also recorded: reduction in hypoxia-induced gene expression; also recorded: inhibited this induction
AP-1 site
  binding to control AP1 motif oligonucleotide: undetectable binding
[2]
  hypoxia-induced HRE-regulated luciferase expression: blocked this induction with potency equivalent to that observed in UPRE-reporter studies
SUM159 cells
  cell invasion: inhibited cell invasion
MDA-MB-231 cells
  cell viability: did not impact cell viability
